In publication PMC3518498 (Oncoimmunology, 2012):

How the values were obtained:
HLA-A2 (A*0201) [1] = molecular target: T1, HLA-A2 (A*0201) (Homo sapiens, UniProt P04439, D140Y/D185E/D98H/E176V/E277Q/G131W/G231S/I119V/I121R/I166T/I218V/L300P/L318F/N151K/N90K/P208A/P217A/Q86G/Q94H/R138H/R169H/T345S); assay: iTopia stability; conditions: Table 1
HLA-A2 (A*0201) [2] = molecular target: T1, HLA-A2 (A*0201); assay: iTopia initial binding assay; conditions: Table 1
[3] = test system: HLA-A2 transgenic (HHD) mice; assay: Peptide immunization of HHD mice, IFNγ intracellular staining of splenocytes; format: in vivo, mouse; conditions: for Average % CD8+IFNγ+ cells: group average, splenocytes stimulated with native peptide

Sequence	Binding after 8 h incubation w/o free peptide, % pos control (HLA-A2 (A*0201) [1]) [% pos control]	MHC complex stability (T1/2) (HLA-A2 (A*0201) [1]) [h]	Initial binding, % pos control (HLA-A2 (A*0201) [2]) [% pos control]	Average % CD8+IFNγ+ cells ([3]; HHD mice) [% CD8+IFNγ+ cells]	Fold higher native peptide-specific T-cell response with analog ([3]; analog vs. native peptide immunization, HHD mice) [fold]	Corresponding native peptide: CMIR, % CD8+IFNγ+ cells ([3]; HHD mice immunized with the native peptide, Table 1) [% CD8+IFNγ+ cells]	Corresponding native peptide: Fraction of responders ([3]; HHD mice immunized with the native peptide, responder > 0.1%, Table 1)	Range of individual mouse responses, % CD8+IFNγ+ cells ([3]; HHD mice, individual animals)
ALCRWGLLV [H.5.V9]	33.9	6.2	72.3	–	–	–	–	–
ALVGIMIGV [C.687.L2]	76.2	26.3	73.7	–	–	–	–	–
AVVGILLVV [H.657]	12.0	8.6	20.6	–	–	–	–	–
FLDLQVNSL [T.986]	54.5	7.8	69.5	–	–	–	–	–
FLHWLMSVYV [T.544]	74.4	40.0	48.0	–	–	–	–	–
ILAKFLHWLM [T.540(10)]	–	–	–	–	–	0.06	1/5	–
ILAKFLHWLV [T.540(10).V10]	88.8	16.8	99.8	> 0.1	–	–	–	–
VVLGVVFGV [H.665.V9]	72.7	40.0	65.8	–	–	–	–	–
YLSGANLNV [C.605.V9]	78.5	27.4	73.2	–	–	–	–	–

Further lines, with some results ahead:

Binding after 8 h incubation w/o free peptide, % pos control (HLA-A2 (A*0201) [1]) [% pos control]	MHC complex stability (T1/2) (HLA-A2 (A*0201) [1]) [h]	Initial binding, % pos control (HLA-A2 (A*0201) [2]) [% pos control]	Sequence	Average % CD8+IFNγ+ cells ([3]; HHD mice) [% CD8+IFNγ+ cells]	Fold higher native peptide-specific T-cell response with analog ([3]; analog vs. native peptide immunization, HHD mice) [fold]	Corresponding native peptide: CMIR, % CD8+IFNγ+ cells ([3]; HHD mice immunized with the native peptide, Table 1) [% CD8+IFNγ+ cells]	Corresponding native peptide: Fraction of responders ([3]; HHD mice immunized with the native peptide, responder > 0.1%, Table 1)	Range of individual mouse responses, % CD8+IFNγ+ cells ([3]; HHD mice, individual animals)
17.8	–	13.8	ALVGILLVVV [H.657(10).L2]	–	–	–	–	–
76.2	13.2	88.4	FLVDDFLLV [T.865.F1]	> 0.1	1.9	–	–	–
114.9	40.0	79.7	KLFGSLAFL	–	–	–	–	–
66.3	21.6	80.2	LLDTRTLEV [T.934]	–	–	–	–	–
64.4	25.4	61.2	RLTVTTITV [C.310.L2]	–	–	–	–	3.0–14.3%
